Assay results published in patent US20220000967A1, “SYNTHETIC PEPTIDES INDUCING IMMUNOGENIC CELL DEATH” (SORBONNE UNIVERSITE, priority 2018, published 2022).

Key:
L5178Y-R tumor [1] = test: Long-term memory assay, rechallenge of mice in remission after PKHB1 treatment; assay type: in vivo, BALB/c mice; settings: mice with complete regression after PKHB1-treatment, rechallenged with 2×10^6 L5178Y-R viable cells
Description: (§1) Six-to-eight-week-old BALB/c female mice were maintained in controlled environmental conditions (25° C. and 12h light/dark cycle) and were supplied with rodent food (Science diet) and water ad libitum. • Prophylactic vaccinations: L5178Y-R cells (1.5, 3, 5×10^6) were treated with 300 μM of PKHB1 (CC100) for 2h. Cell death was confirmed using trypan blue staining and flow cytometry. Treated cells were inoculated subcutaneously in 100 μl PBS into the left hind of the leg, whereas 2×10^6 untreated control cells were inoculated into the right hind 7 days later (42). • Tumor establishment and measurement: Tumor was established by the subcutaneous injection of 1×10^6 L5178Y-R cells in 100 μL PBS, into the left hind of the leg. Tumor volume and weight were measured three times per week using a caliper (Digimatic Caliper Mitutoyo Corporation, Japan) and a digital scale (American Weigh Scale-600-BLK, USA). When the tumor reached 100 mm^3 the first PKHB1 injection (200 μg) was applied (day 0). Tumor volume was determined with the formula: tumor volume (mm3)=[…]*A*B*C. Long-term memory assay: Mice in complete remission after PKHB1 treatment, were rechallenged with 2×10^6 cells in 100 μL of PBS, into the opposite limb, and tumor volume was measured like described above.

L5178Y-R tumor [2] = test: PKHB1 treatment of L5178Y-R tumor-bearing mice; assay type: in vivo, BALB/c mice
Description: The heparinized blood acquired from mice, was assessed using the Automatic Hematology Analyzer KontroLab. Blood smears were performed and fixed with methanol, stained with Wright's, and observed under the microscope to perform differential blood white cells counts.
as §1
Tissues and organs were obtained and fixed in 10% neutral formalin, embedded in paraffin, sectioned (5 µm thickness) and stained with H&E (Sigma-Aldrich, St Louis, Mo., USA). Histopathological analysis was done by an external veterinarian pathologist (National professional certificate 2593012). Immunohistochemistry was done using the appropriate primary antibody (CD4/CD8) and adding the biotinylated secondary antibody. Finally, hematoxylin-counterstained slides are coverslipped using resin as mounting solution and observed under microscopy.

MOLT-4 [3] = test: HMGB1 release assay (ELISA); assay type: cell-based, human
Description: (§2) Supernatants of untreated and treated (PKHB1 CC50 and CC100 for each cell line) leukemic cells (1×10^6 cells/mL) were used to measure extracellular HMGB1 using the HMGB1 ELISA kit for CEM, MOLT-4 or L5178Y-R cells (BioAssay ELISA kit Human or mouse respectively, US biological Life Science Salem, Mass., USA), following the manufacturer instructions. Absorbance was assessed at 450 nm.

CEM [4] = test: HMGB1 release assay (ELISA); assay type: cell-based, human; settings: PKHB1 CC100, 2h
Description: as §2

MOLT-4 [5] = test: Calreticulin exposure (flow cytometry, confocal microscopy); assay type: cell-based, human; settings: CC50 of PKHB1, 2h
Description: (§3) 1×10^6 cells/mL were plated, treated with PKHB1, and incubated for 2h. Cells were harvested, washed, and stained with Calreticulin-PE (FMC-75, Enzo Life Science, Farmingdale, N.Y., USA) antibody (1:1000) in FACS buffer. After 1h of incubation in darkness at room temperature, cells were washed and resuspended in 100Lp of FACS buffer to be assessed by flow cytometry. For confocal microscopy (OlympusX70), poly-Llysine was added 24h to sterile coverslips and 1×10^6 cells/mL were seeded. PKHB1 was added and incubated for 2h. Then, the cells were stained with Calreticulin-PE antibody (1:500) and Hoechst, incubated 1h, and assessed by confocal microscopy.

CEM [6] = test: as above; assay type: cell-based, human; settings: CC50 of PKHB1, 2h
Description: as §3

L5178Y-R [7] = test: Loss of mitochondrial transmembrane potential (TMRE); assay type: cell-based, murine; settings: PKHB1 CC50, 2h
Description: CEM, MOLT-4 (T-acute lymphoblastic leukemia, T-ALL), and L5178Y-R (murine lymphoblastic T cell line) were obtained from ATCC. Human and murine PBMCs, human CD4+ and CD8+ T cells, and primary lymphoid organ's cells were obtained from healthy individuals. Cells were maintained in RPMI-1640 medium supplemented with 10% of fetal bovine serum, 2 mM L-glutamine, 100 U/mL penicillin-streptomycin (GIBCO by Life Technologies, Grand Island, N.Y., USA), and incubated at 37° C. in a controlled humidified atmosphere with 5% CO2. Cell count was performed using trypan blue (0.4% Sigma-Aldrich), a Neubauer chamber and an optic microscope (Zeiss Primo Star) as proposed by the ATCC's standard protocols. Flow Cytometry. Cell Death Induction, and Inhibition Annexin-V-allophycocyanin (Ann-V-APC 0.1 μg/ml; BD Pharingen, San Jose Calif., USA), propidium iodide (PI, 0.5 μg/ml Sigma-Aldrich), and tetramethylrhodamine ethyl ester (TMRE, 20 nM, Sigma-Aldrich) were used for phosphatidylserine exposure, cell viability, and mitochondrial transmembrane potential (UΨm) quantification, respectively, in a BD AccuryC6 flow cytometer (BD Biosciences) (total population 10,000 cells). Data were analyzed using FlowJo software. 1×10^6 cells/mL were treated for 2h with PKHB1 (as indicated). […]

L5178Y-R [8] = test: HMGB1 release assay (ELISA); assay type: cell-based, murine; settings: PKHB1 CC100, 2h
Description: as §2

MOLT-4 [9] = test: Cell death by Annexin-V-APC/PI flow cytometry; assay type: cell-based; settings: MOLT-4, 2h; for cell death percentage: PKHB1 200 μM
Description: (§4) CEM, MOLT-4 (T-acute lymphoblastic leukemia, T-ALL), and L5178Y-R (murine lymphoblastic T cell line) were obtained from ATCC. Human and murine PBMCs, human CD4+ and CD8+ T cells, and primary lymphoid organ's cells were obtained from healthy individuals. Cells were maintained in RPMI-1640 medium supplemented with 10% of fetal bovine serum, 2 mM L-glutamine, 100 U/mL penicillin-streptomycin (GIBCO by Life Technologies, Grand Island, N.Y., USA), and incubated at 37° C. in a controlled humidified atmosphere with 5% CO2. Cell count was performed using trypan blue (0.4% Sigma-Aldrich), a Neubauer chamber and an optic microscope (Zeiss Primo Star) as proposed by the ATCC's standard protocols. Flow Cytometry. Cell Death Induction, and Inhibition Annexin-V-allophycocyanin (Ann-V-APC 0.1 μg/ml; BD Pharingen, San Jose Calif., USA), propidium iodide (PI, 0.5 μg/ml Sigma-Aldrich), and tetramethylrhodamine ethyl ester (TMRE, 20 nM, Sigma-Aldrich) were used for phosphatidylserine exposure, cell viability, and mitochondrial transmembrane potential (UΨm) quantification, respectively, in a BD AccuryC6 flow cytometer (BD Biosciences) (total population 10,000 cells). Data were analyzed using FlowJo software. 1×10^6 cells/mL were treated for 2h with PKHB1 (as indicated). For the inhibition assays, calcium chelator, BAPTA (5 mM, CalbioChem, Merck, Billerica Mass., USA); or the pancaspase inhibitor Q-VD-OPh (QVD, 10 μM, BioVision, Milpitas Calif., USA); were added 30 min before PKHB1.

[10] = Cell death by Annexin-V-APC/PI flow cytometry; assay type: cell-based; settings: MOLT-4, 2h; read-out: cytotoxic concentration that induces around 50% of cell death (CC50)
Description: as §4

L5178Y-R [11] = test: ATP release assay (luciferase bioluminescence); assay type: cell-based, murine; settings: CC50 and CC100, 2h
Description: 1×10^6 cells/mL were treated with PKHB1 (CC50 and CC100 for each cell lines) for 2h. Supernatants were used to assess extracellular ATP by a luciferase assay (ENLITEN kit, Promega, Madison Wis., USA) following the manufacturer's instructions. Bioluminescence was assessed in a microplate reader (Synergy HT, BioTek, Software Gen5, Winooski, Vt., USA) at 560 nm.

L5178Y-R [12] = test: Western blot of HSP90, HSP70, CRT and HMGB1; assay type: cell-based, murine; settings: CC50 and CC100, 2h
Description: 1×10^6 cells/mL were seeded in a serum-free culture medium and treated with PKHB1 (CC50 and CC100 for each cell line) or left alone (Control) for 2h. Supernatants was recovered and lysed with lysis buffer (20 mM Tris pH 6.8, 2 mM EDTA, 300 mM NaCl and SDS 2%). Protein concentration was measured using the DC Protein Assay kit (Bio-Rad, Hercules, Calif., USA) and 50 μg of protein were loaded into SDS-PAGE gels. After blotting, nitrocellulose filters were probed with primary antibodies (1:1000) against HMGB1 (HAP46.5: sc-56698), HSP70 (C92F3A-5: sc-66048), HSP90 (F-8: SC-13119) and Calreticulin (F-4: sc373863). Anti-mouse or anti-rabbit-HRP served as secondary antibodies (Santa Cruz Biotechnology, CA, USA). Visualization was performed with ECL substrate system (Thermo Scientific, Waltham, Mass., USA).

[13] = PKHB1-treated vs untreated tumor-bearing mice, trypan blue count

Compound: CSCC[C@H](NC(=O)[C@@H](NC(=O)[C@@H](NC(=O)[C@H](Cc1ccc(O)cc1)NC(=O)[C@H](Cc1ccccc1)NC(=O)[C@H](CCCNC(=N)N)NC(=O)[C@H](N)CCCCN)C(C)C)C(C)C)C(=O)N[C@@H](Cc1c[nH]c2ccccc12)C(=O)N[C@@H](CCCCN)C(=O)N[C@H](CCCCN)C(=O)O [PKHB1, (D)K-R-F-Y-V-V-M-W-K-(D)K]
- rechallenged mice that developed the tumor (L5178Y-R tumor [1]): ≈ 17%
- survival of re-challenged mice (Kaplan-Meier) (L5178Y-R tumor [1]): 90%
- tumor histology (H&E), leukocyte infiltration (L5178Y-R tumor [2]; 200 μg PKHB1 intraperitoneally weekly, day 18): contained a mixture of lymphocytes and polymorphonuclear cells
- tumor regression (L5178Y-R tumor [2]; 200 μg PKHB1 intraperitoneally weekly, day 30): complete tumor regression in most of the mice
- immunohistochemistry of tumor sections, CD4+ and CD8+ cells (L5178Y-R tumor [2]; PKHB1-treated tumor-bearing mice): presence of CD4+ and CD8+ cells
- WBC differential (L5178Y-R tumor [2]; PKHB1-treated tumor-bearing mice vs healthy mice): no significant difference
- cell number of BM, spleen and thymus cells (L5178Y-R tumor [2]; [13]): significant increase
- cell number of lymph nodes (L5178Y-R tumor [2]; [13]): significant decrease
- HMGB1 release with respect to the control (MOLT-4 [3]; PKHB1 CC50, 2h): 8 fold
- HMGB1 release compared to the untreated control (MOLT-4 [3]; PKHB1 CC100, 2h): 4 fold
- HMGB1 release compared to the untreated control (CEM [4]): 6 fold
- CRT exposure (MOLT-4 [5]): significant increase
- CRT exposure (CEM [6]): significant increase
- loss of mitochondrial membrane potential (L5178Y-R [7]): 51%±8
- HMGB1 release compared to the untreated control (L5178Y-R [8]): 2 fold
- cell death (Ann-V-APC/PI positive cells) (MOLT-4 [9]; 100, 200 and 300 μM): concentration-dependent
- cell death percentage (MOLT-4 [9]; left alone): 57%±4
- cell death percentage (MOLT-4 [9]; pre-incubated 30 min with Ca2+ chelator BAPTA): 38%±3
- cell death percentage (MOLT-4 [9]; pre-incubated 30 min with pan-caspase inhibitor Q-VD-OPH): 51%±6
- CC50 [10]: 300 µM
- presence of ATP in supernatants (L5178Y-R [11]): significantly augmented
- expression of HSP90, HSP70, CRT and HMGB1 in cellular lysates (L5178Y-R [12]): decrease
- expression of HSP90, HSP70, CRT and HMGB1 in supernatants (L5178Y-R [12]; vs untreated cells): increased
